From patent US8835462B2, “Macrocyclic picolinamides as fungicides” (Dow AgroSciences LLC, priority 2012, dated 2014)
Read-outs that look alike come from different tables or passages of the source.

What was measured:
Puccinia triticina [1] = test: Fungicide mobility (dropline mobility test), wheat brown rust (PUCCRT); type: in vivo; conditions: 1 ug/leaf, disease-free zone as percent of distance from marked line to leaf tip; for Dropline Mobility Test PUCCRT 1 DPM: 1 Day Protectant Mobility; for Dropline Mobility Test PUCCRT 3 DCM: 3 Day Curative Mobility
Description: Evaluation of Fungicide Mobility: Wheat Brown Rust (Puccinia Triticina; Synonym: Puccinia recondita f. sp. Tritici; Bayer Code PUCCRT):
“Yuma” wheat seedlings were used in the test. One mg of compound was dissolved in 9 μl of EC blank (emulsifiable concentrate) and 500 μl of acetone. Acetone was then evaporated overnight by leaving the vial open in a fume hood. Two milliliters of water containing 110 ppm Triton X-100 was added to each vial to prepare application solutions. A […] drop of formulated material was applied to a marked line on the adaxial surface 5 cm from the leaf tip of the primary leaves. The primary leaves were kept in a horizontal position. Each treatment had 6 replicates. Plants were inoculated with PUCCRT 1-day after (1DPM) or 3-day prior to (3DCM) compound applications. When rust was fully expressed on primary leaves on control plants, the zone of treated leaves that was disease-free in the acropetal direction was measured with a ruler and converted to percent of the distance from marked line to leaf tip.

[2] = test system: Mycosphaerella graminicola; Anamorph: Septoria tritici; test: Leaf blotch of wheat (SEPTTR) fungicidal activity on wheat seedlings; type: in vivo; conditions: Zymoseptoria tritici
Description: Evaluation of Fungicidal Activity: Leaf Blotch of Wheat (Mycosphaerella Graminicola; Anamorph: Septoria tritici; Bayer Code […]) Technical grades of materials were dissolved in acetone, which were then mixed with nine volumes of water containing 110 ppm Triton X-100. The fungicide solutions were applied onto wheat seedlings using an automated booth sprayer to run-off. All sprayed plants were allowed to air dry prior to further handling. Wheat plants (variety Yuma) were grown from seed in a greenhouse in 50% mineral soil/50% soil-less Metro mix until the first leaf was fully emerged, with 7-10 seedlings per pot. These plants were inoculated with an aqueous spore suspension of Septoria tritici either prior to or after fungicide treatments. After inoculation the plants were kept in 100% relative humidity (one day in a dark dew chamber followed by two to three days in a lighted dew chamber at 20° C.) to permit spores to germinate and infect the leaf. The plants were then transferred to a greenhouse set at 20° C. for disease to develop. When disease symptoms were fully expressed on the 1st leaves of untreated plants, infection levels were assessed on a scale of 0 to 100 percent disease severity. Percent disease control was calculated using the ratio of disease severity on treated plants relative to untreated plants.

Puccinia triticina [3] = test: Wheat brown rust (PUCCRT) fungicidal activity on wheat seedlings; type: in vivo
Description: Technical grades of materials were dissolved in acetone, which were then mixed with nine volumes of water containing 110 ppm Triton X-100. The fungicide solutions were applied onto wheat seedlings using an automated booth sprayer to run-off. All sprayed plants were allowed to air dry prior to further handling. Wheat plants (variety Yuma) were grown from seed in a greenhouse in 50% mineral soil/50% soil-less Metro mix until the first leaf was fully emerged, with 7-10 seedlings per pot. These plants were inoculated with an aqueous spore suspension of Septoria tritici either prior to or after fungicide treatments. After inoculation the plants were kept in 100% relative humidity (one day in a dark dew chamber followed by two to three days in a lighted dew chamber at 20° C.) to permit spores to germinate and infect the leaf. The plants were then transferred to a greenhouse set at 20° C. for disease to develop. When disease symptoms were fully expressed on the 1st leaves of untreated plants, infection levels were assessed on a scale of 0 to 100 percent disease severity. Percent disease control was calculated using the ratio of disease severity on treated plants relative to untreated plants. Evaluation of Fungicidal Activity: Wheat Brown Rust (Puccinia triticina; Synonym: Puccinia recondita f. sp. tritici; Bayer Code PUCCRT) Wheat plants (variety Yuma) were grown from seed in a greenhouse in 50% mineral soil/50% soil-less Metro mix until the first leaf was fully emerged, with 7-10 seedlings per pot. These plants were inoculated with an aqueous spore suspension of Puccinia triticina either prior to or after fungicide treatments. After inoculation the plants were kept in a dark dew room at 22° C. with 100% relative humidity overnight to permit spores to germinate and infect the leaf. The plants were then transferred to a greenhouse set at 24° C. for disease to develop. Fungicide formulation, application and disease assessment followed the procedures as described in the Example A.

[4] = 24 h, 1 Day Protectant, read-out: Disease Control SEPTTR 1 DP
[5] = 72 h, 3 Day Curative, read-out: Disease Control SEPTTR 3 DC
[6] = 24 h, 1 Day Protectant, read-out: Disease Control PUCCRT 1 DP
[7] = 72 h, 3 Day Curative, read-out: Disease Control PUCCRT 3 DC

Structure (SMILES)	melting point	Dropline Mobility Test PUCCRT 1 DPM (Puccinia triticina [1])	Dropline Mobility Test PUCCRT 3 DCM (Puccinia triticina [1])	pest or weed control at 100 ppm [2, 4]	pest or weed control at 100 ppm [2, 5]	pest or weed control at 100 ppm (Puccinia triticina [3]; [6])	pest or weed control at 100 ppm (Puccinia triticina [3]; [7])
COc1ccnc(C(=O)N[C@H]2COC[C@H](Cc3ccccc3)[C@@H](OC(=O)C(C)C)[C@H](C)OC2=O)c1O [Compound 1]	66 to 70 °C	B (More than 0-Less than 80)	B (More than 0-Less than 80)	80 to 100%	80 to 100%	80 to 100%	80 to 100%
COc1ccnc(C(=O)N[C@H]2COC[C@H](CC3CCCCC3)[C@@H](OCC(C)C)[C@H](C)OC2=O)c1O [Compound 4, N-((3S,7S,8R,9S)-7-(cyclohexylmethyl)-8-isobutoxy-9-methyl-2-oxo-1,5-dioxonan-3-yl)-3-hydroxy-4-methoxypicolinamide]	89 to 92 °C			80 to 100%	80 to 100%	80 to 100%	80 to 100%
C=C(C)CO[C@@H]1[C@@H](Cc2ccccc2)COC[C@H](NC(=O)c2nccc(OC)c2O)C(=O)O[C@H]1C [Compound 6]	96 to 104 °C			80 to 100%	0 to 80%	80 to 100%	80 to 100%
CCCO[C@@H]1[C@@H](Cc2ccccc2)COC[C@H](NC(=O)c2nccc(OC)c2O)C(=O)O[C@H]1C [Compound 17]	102 to 104 °C	B (More than 0-Less than 80)	B (More than 0-Less than 80)	80 to 100%	80 to 100%	80 to 100%	80 to 100%
CCCC(C)O[C@@H]1[C@@H](Cc2ccccc2)COC[C@H](NC(=O)c2nccc(OC)c2O)C(=O)O[C@H]1C (stereo partly shown) [Compound 19]	52 to 56 °C	B (More than 0-Less than 80)		80 to 100%	80 to 100%	80 to 100%	80 to 100%
CCCCCO[C@@H]1[C@@H](Cc2ccccc2)COC[C@H](NC(=O)c2nccc(OC)c2O)C(=O)O[C@H]1C [Compound 21]	51 to 56 °C	B (More than 0-Less than 80)		0 to 80%	0 to 80%	80 to 100%	0 to 80%
COc1ccnc(C(=O)N[C@H]2COC[C@H](Cc3ccccc3)[C@@H](OC)[C@H](C)OC2=O)c1O [Compound 32]	57 to 70 °C	B (More than 0-Less than 80)	B (More than 0-Less than 80)	0 to 80%	80 to 100%	80 to 100%	0 to 80%
C[C@@H]1OC(=O)[C@@H](NC(=O)OC(C)(C)C)COC[C@H](Cc2ccccc2)[C@H]1O [Compound 48, tert-Butyl-(3S,7S,8R,9S)-7-benzyl-8-hydroxy-9-methyl-2-oxo-1,5-dioxonan-3-ylcarbamate]	62 to 67 °C						
COC(=O)/C=C/O[C@@H]1[C@@H](Cc2ccccc2)COC[C@H](NC(=O)OC(C)(C)C)C(=O)O[C@H]1C [Compound 49, (E)-methyl 3-(((3S,6S,7R,8S)-8-benzyl-3-((tert-butoxycarbonyl)amino)-6-methyl-4-oxo-1,5-dioxonan-7-yl)oxy)acrylate]	128 to 129 °C						
C[C@@H]1OC(=O)[C@@H](NC(=O)OC(C)(C)C)COC[C@H](Cc2ccccc2)[C@H]1O/C=C/C(=O)OCc1ccccc1 [Compound 51, (E)-benzyl 3-(((3S,6S,7R,8S)-8-benzyl-3-((tert-butoxycarbonyl)amino)-6-methyl-4-oxo-1,5-dioxonan-7-yl)oxy)acrylate]	182 to 185 °C						
C[C@@H]1OC(=O)[C@@H](NC(=O)OC(C)(C)C)COC[C@H](Cc2ccccc2)[C@H]1OCCC(=O)N(C)C [Compound 53, tert-butyl ((3S,7S,8R,9S)-7-benzyl-8-(3-(dimethylamino)-3-oxopropoxy)-9-methyl-2-oxo-1,5-dioxonan-3-yl)carbamate]	142 to 143 °C						
C[C@@H]1OC(=O)[C@@H](N(C(=O)OC(C)(C)C)C(=O)OC(C)(C)C)COC[C@H](Cc2ccccc2)[C@H]1O [Compound 57, tert-butyl N-[(3S,7S,8R,9S)-7-benzyl-8-hydroxy-9-methyl-2-oxo-1,5-dioxonan-3-yl]-N-tert-butoxycarbonylcarbamate]	139 to 141 °C						
C[C@@H]1OC(=O)[C@@H](NC(=O)OC(C)(C)C)COC[C@H](Cc2ccccc2)[C@H]1OC(=O)c1ccccc1 [Compound 61]	54 to 63 °C						
C[C@@H]1OC(=O)[C@@H](NC(=O)OC(C)(C)C)COC[C@H](Cc2ccccc2)[C@H]1OC(=O)C1CC1 [Compound 62]	72 to 85 °C						
C=CCO[C@@H]1[C@@H](Cc2ccccc2)COC[C@H](N(C(=O)OC(C)(C)C)C(=O)OC(C)(C)C)C(=O)O[C@H]1C [Compound 65]	88 to 90 °C						
C[C@@H]1OC(=O)[C@@H](N(C(=O)OC(C)(C)C)C(=O)OC(C)(C)C)COC[C@H](Cc2ccccc2)[C@H]1OC/C=C/C(F)(F)F [Compound 66]	131 to 133 °C						
C/C=C/C(C)O[C@@H]1[C@@H](Cc2ccccc2)COC[C@H](N(C(=O)OC(C)(C)C)C(=O)OC(C)(C)C)C(=O)O[C@H]1C (stereo partly shown) [Compound 67]	80 to 83 °C						
CCCO[C@@H]1[C@@H](Cc2ccccc2)COC[C@H](N(C(=O)OC(C)(C)C)C(=O)OC(C)(C)C)C(=O)O[C@H]1C [Compound 68]	98 to 100 °C						
C[C@@H]1OC(=O)[C@@H](N(C(=O)OC(C)(C)C)C(=O)OC(C)(C)C)COC[C@H](Cc2ccccc2)[C@H]1OCCCC(F)(F)F [Compound 69]	100 to 102 °C						
CC/C=C/CO[C@@H]1[C@@H](Cc2ccccc2)COC[C@H](N(C(=O)OC(C)(C)C)C(=O)OC(C)(C)C)C(=O)O[C@H]1C [Compound 71]	127 to 129 °C						
CCCCCO[C@@H]1[C@@H](Cc2ccccc2)COC[C@H](N(C(=O)OC(C)(C)C)C(=O)OC(C)(C)C)C(=O)O[C@H]1C [Compound 72]	94 to 97 °C						
C=C(C)CO[C@@H]1[C@@H](Cc2ccccc2)COC[C@H](N(C(=O)OC(C)(C)C)C(=O)OC(C)(C)C)C(=O)O[C@H]1C [Compound 82, tert-butyl N-[(3S,7S,8R,9S)-7-benzyl-9-methyl-8-(2-methylallyloxy)-2-oxo-1,5-dioxonan-3-yl]-N-tert-butoxycarbonylcarbamate]	109 to 110 °C						
